# Assay results reported in US20150174213A1, “COMPOSITIONS COMPRISING SULFORAPHANE OR A SULFORAPHANE PRECURSOR AND URSOLIC ACID” (Nutramax Laboratories, Inc., priority 2012, published 2015).
# Tests used:
# [1] = tested on: myrosinase; test: Conversion of glucoraphanin to sulforaphane in Simulated Intestinal Fluid (Example 5); assay type: biochemical, broccoli; details: 0.25 to 1.00 mmol/Liter ascorbic acid, 38° C., FIG. 4
# Experimental: Simulated Intestinal Fluid (SIF) powder, a commercially supplied concentrate closely approximating the human intestinal content in terms of composition, pH and ionic strength, was used. The experiment utilized a USP Dissolution Apparatus 2 (paddles), where into six dissolution vessels 500 mL of Simulated Intestinal Fluid was dispensed, along with 150 mg of freeze-dried broccoli sprout powder as a source of myrosinase. […] Aliquots were withdrawn every 15 minutes, and assayed for sulforaphane.
# [2] = tested on: mammary epithelium; details: oral administration, Sprague-Dawley rats; cited from earlier work
# [3] = tested on: mammary tumors; details: Sprague-Dawley rats; cited from earlier work
# [4] = tested on: myrosinase; test: Equimolar conversion of glucoraphanin to sulforaphane by myrosinase with ascorbic acid (Example 4); assay type: biochemical, broccoli; details: control sample, without ascorbic acid
# Experimental: A two-part experiment was conducted to further elucidate the role of ascorbic acid in modulating myrosinase activity. […] A control sample contained no ascorbic acid, and the enzymatic conversion proceeded unassisted by a co-factor. PART 1. […] PART 2. While keeping the amount of broccoli seed extract fixed at 250 mg, the concentration of ascorbic acid was varied from 0.4 mmol/Liter to 3.8 mmol/Liter.
structure (smiles),measurement,setting,value
"O=C1O[C@H]([C@@H](O)CO)C(O)=C1O [Ascorbic Acid, Ascorbic acid]",Yield of sulforaphane versus ascorbic acid concentration,[1],direct correlation between larger yield of sulforaphane and higher concentrations of ascorbic acid
"C[S+]([O-])CCCCN=C=S (centres unmarked) [SFN, 1-isothiocyanato-4-methylsulfinylbutane]",Elevated immunostaining of the heme oxygenase-1 (HO-1) enzyme,[2],4 fold
same,Increase in NAD(P)H:quinine oxidoreductase (NQO1) enzymatic activity,[2],3 fold
same,Blocking the formation of mammary tumors,[3],effective
"C[S+]([O-])CCCC/C(=N\OS(=O)(=O)O)S[C@@H]1O[C@H](CO)[C@@H](O)[C@H](O)[C@H]1O (some centres unmarked) [glucoraphanin, 4-methylsulfinylbutyl glucosinolate]",Stoichiometry of conversion of glucoraphanin to sulforaphane,[4],equimolar conversion
